# Reference: PMC10103840 (Frontiers in Pharmacology, 2023)
# Values joined by “and” are separate entries in the source; they are usually repeats but may differ in a detail not shown here. Identical values can stand only once.
# Key:
# BeWo b30 cells = assay: in vitro; conditions: human, 60 min, 5 μM
# Method: (§1) BeWo b30 choriocarcinoma cells were obtained from Dr. Tina Buerki-Thurnherr (Empa, St. Gallen, Switzerland), with permission from Dr. Alan L. Schwartz (Washington University School of Medicine, St. Louis MO, USA), and were cultivated in F-12 K Nut Mix supplemented with 10% heat inactivated FBS, antibiotics (100 U/mL penicillin, 100 µg/mL […]), and 2 mM L-glutamine (all from Gibco). The cells were cultivated in a humidified incubator at 37°C and 5% CO2 atmosphere.
# (§2) BeWo b30 cells were cultured on Transwell® polycarbonate membrane inserts (24-well format; 0.4 μm pore size, 0.33 cm^2 cell growth area, 200 μL apical volume, 1′000 μL basolateral volume; Corning, Sigma-Aldrich) at a density of 60′000 cells/well. These inserts were then cultivated in a cellZscope (nanoAnalytics) at 37°C/5% CO2. Cell culture medium was replaced every 2 days up to 11 days to find the best possible conditions.
# (§3) BeWo b30 cells were cultured in transparent 24-well plates under the same conditions as mentioned above and transferred to the cellZscope® at day 8 to record TER and Ccl values. After 24 h (day 9) and when a TER of 30–60 Ωcm^2 was reached and Ccl was between 0.5 and 5.0 μF/cm^2, the permeability assay was initiated by adding valerenic acid (5 μM; in HBSS with 4% BSA) to the apical compartment, while the basolateral compartment contained 1′000 μL of HBSS only. […] Samples (150 μL apical, 800 μL basolateral) were collected at each time point (0, 15, 30, 60 min; one insert per time point). After 60 min, a part of the inserts was transferred back to the cellZscope® to monitor TER and Ccl values during another 24 h. The cells grown on the other part of the inserts were quickly washed with 200 μL of cold HBSS and then lysed with 700 μL acetonitrile (100 μL apical, 600 μL basolateral) for 40 min on an orbital shaker (450 rpm, room temperature) to determine the test substance cell contents.
# (§4) Apparent permeability coefficients (Papp) were calculated according to the following Eq. 1: Papp cm/s=∆Q/∆t/ACA0 (1) where ΔQ/Δt is the rate of amount transported to the receiver compartment, A is the membrane surface area (0.33 cm^2), and C A0 is the initial concentration in the apical compartment.
# (§5) The clearance values were calculated according to the following Eq. 2 ([Neuhaus et al., 2008]): Clearance μL=CBnVB/CA−VB/VA∙∑CBn−1 (2) where C Bn and V B are the concentration and volume in the basolateral compartment at a specific timepoint (n), respectively; C A and VA are the concentration and volume in the apical compartment, respectively, and C Bn-1 is the total amount of substance found in the basolateral compartment up to the previous timepoint (n-1).
# (§6) Recovery (mass balance) of each compound was calculated according to the following Eq. 3: Recovery %=CAfVA+CBfVB+CCfVC/CA0VA∙100 (3) where C Af , C Bf and C Cf are the final compound concentrations in apical, basolateral, and cellular compartments, respectively; C A0 is the initial concentration in the apical compartment, and V A , V B and V C are the volumes in the respective compartments.
# (§7) For valerenic acid, 150 µL of the IS in MeOH were added to 50 µL of sample, and the mixture centrifuged for 20 min at 13′200 rpm/16′100 rcf at 10°C (Centrifuge 5415R, Eppendorf). An aliquot (50 µL) of the supernatant was collected and transferred into HPLC vials. Vials were centrifuged for additional 20 min prior to U(H)PLC-MS/MS analysis in full loop mode (2 µL).
# in vitro [1] = conditions: human
# Method: as §1, §2, §3, §4, §5, §6, §7
# placental tissue [2] = tested on: placental tissue
# Method: The stability of volumes in each reservoir ensured the integrity of the circuits and served for the detection of fetal-maternal (FM) leaks (≤4 mL/h). Throughout the perfusion additional quality control measures included a physiological pH-range (7.2 ± 0.1) and a controlled fetal perfusion pressure (≤ 70 mmHg). Samples were taken at defined timepoints over a 240 min period, immediately centrifuged, and stored in glass micro-inserts (VWR) at −80°C for bioanalytical analysis. A blood gas analysis (pH, pO2, pCO2, glucose, lactate; ABL800 FLEX) of fetal and maternal samples was performed to ensure viability and metabolic activity of placental tissue during perfusion. The production of the placental hormones beta-human chorionic gonadotropin (β-hCG) and leptin was monitored by standard ELISA to assess tissue functionality ex vivo [see ([Spiess et al., 2022a]) and references therein]. For β-hCG, flat-bottom microplates were coated with rabbit polyclonal anti-hCG antibody (Agilent Dako) at a 1:1′000 dilution and the mouse monoclonal anti-hCG (abcam; 1:5′000) served as secondary antibody. The peptide hormone hCG (Lucerna-Chem) was used as reference standard; standard final concentrations of between 100 mU/mL and 2.5 mU/mL were prepared by serial dilution in seven steps and used in each plate. The goat anti-mouse-IgG-horseradish peroxidase conjugate (abcam) antibody was used at a 1:5′000 dilution. The substrate consisted of O-phenylenediamine dihydrochloride. […] For leptin, microtiter plates were coated with mouse monoclonal anti-human leptin/OB (R&D Systems; 1:250). The second antibody was biotinylated monoclonal mouse anti-human leptin/OB (R&D Systems), used at a dilution of 1:1′000. The standard was recombinant human leptin (R&D Systems); standard final concentrations of between 2′000 pg/mL and 15.6 pg/mL were prepared by serial 1:2 dilution in seven steps and used in each plate. […] The conjugate streptavidin-horseradish peroxidase (Southern Biotechnology Associates, 1:4′000) was added and the plate incubated for 60 min. For the development, ready-to-use tetramethylbenzidine substrate solution (Thermo Fischer) was used.
# Concentrations in the placental perfusion profiles (Figure 2) and system adherence tests (Figure 4) were expressed as a percentage (%) of the maternal concentration at the beginning of the perfusion, whereby the maternal concentration, measured in the maternal reservoir, was adjusted to the total volume of the full maternal circuit (maternal reservoir and dead volume of the system). The FM concentration ratio (FM ratio; Figure 3) was calculated for each timepoint and plotted against the perfusion time (min). The final recovery (%) is the sum of the amounts of study compound present in both perfusates at the end of a perfusion, and the sample removed during the experiment. Glucose consumption and lactate production are presented as the sum of changes (from the beginning to the end of perfusion) in total content (μmol) in both circuits, normalized by total perfusion time (min) and weight (g) of perfused cotyledon. […]
# Multiple group comparisons were performed for the glucose consumption, lactate production, β-hCG and leptin production using the non-parametric Mann–Whitney U with GraphPad Prism (version 9.3.1 for macOS; GraphPad Software). […] Data are expressed as mean ± SD of three to four independent experiments.
# [3] = System adherence test (empty perfusion chamber, maternal circuit only); type: in vitro ADME; conditions: % of initial concentration, 5 μM in PM, no placental tissue, 240 min, n = 3
# Method: The dissolution and adherence of the compounds to the perfusion equipment and to the tubing system was assessed before starting perfusions with human placentae. […] The compounds were directly dissolved in PM at a final concentration of 5 μM (100 mL reservoir) and individually tested in three independent experiments (n = 3).
# [4] = 60 min, 5 μM
# in vitro [5] = conditions: human, pH 7.2
# placental tissue [6] = assay: Histopathological evaluation of perfused placentae; design: species or system human
# Method: Immediately after perfusion the placentae were fixed in 4% paraformaldehyde for at least 24 h. Tissue samples from representative placental tissue sections, each from perfused, non-perfused, and transitional area were prepared to perform a pathological examination. For this purpose, the tissue was embedded in paraffin, cut (∅ 2-3 µm), and stained (standard hematoxylin-eosin stain, Braun-Brenn modified Gram stain) according to the standards of routine histopathological diagnosis of the Department of Pathology and Molecular Pathology (University Hospital of Zurich). […] The blood void and width of the intervillous space and fetal blood vessels in the chorionic villi provided information about the quality of perfusion, and particular attention was paid to the presence of intravascular thrombi. General signs of degeneration, such as vacuolization of the cytotrophoblast, villous vascular endothelium viability, and formation of hydropic villous changes compared with non-perfused tissue indicated whether tissue damage might have occurred during perfusion. Microscopic effects and placental tissue damage in the perfused area were expressed in relative amounts (%) to the non-perfused tissue.
# [7] = Stability assay in PBS, perfusion medium and placental homogenates; type: in vitro ADME, human
# Method: In short, after spiking the various matrices with the study compounds, samples were either processed immediately for U(H)PLC-MS/MS analysis (C0), or kept at 4°C/37°C on an orbital shaker (600 rpm) for 360 min before processing for U(H)PLC-MS/MS analysis. Samples were processed via solid phase extraction or protein precipitation prior to analysis.
# [8] = Transwell control experiments across cell-free inserts; conditions: data not shown
# [9] = human volunteers, ref Jackson et al., 2014; cited from earlier work
# BeWo cells = conditions: ref Spiess et al., 2022b; cited from earlier work
# [10] = non-perfused area of same placenta
smiles,measurement,setting,value
"Cc1cc(=O)n(-c2ccccc2)n1C [Antipyrine, antipyrine, reference compound]",Clearance across BeWo b30 cell layer,BeWo b30 cells,35.5 µL
same,"Papp at 60 min, 5 μM",in vitro [1],280 nm/s
same,"recovery at 60 min, 5 μM",in vitro [1],81.9%
same,Lactate production,placental tissue [2],0.27 µmol/g/min
same,Leptin production,placental tissue [2],2.26 ng/min
same,Total glucose consumption,placental tissue [2],0.39 µmol/g/min
same,β-hCG production,placental tissue [2],1.44 U/min
same,Sampling (% found),"human placental barrier; human, 5 μM, pH 7.2",21.8 ± 1.3%
same,Time to equilibrium between fetal and maternal compartment,"human placental barrier; human, 5 μM, pH 7.2",120 min
same,Time to equilibrium between fetal and maternal concentrations (FM ratio),"human placental barrier; human, 5 μM, pH 7.2",90 min
same,FM ratio at 90 min,"human placental barrier; human, 90 min, 5 μM, pH 7.2",1.03
same,FM ratio at 120 min,"human placental barrier; human, 120 min, 5 μM, pH 7.2",0.98
same,FM ratio at 180 min,"human placental barrier; human, 180 min, 5 μM, pH 7.2",1.05
same,FM ratio at 240 min,"human placental barrier; human, 240 min, 5 μM, pH 7.2",0.92
same,Compound lost / adhering to the perfusion equipment,[3],−2.2% and −2.2% ± 7.0%
same,Clearance across cell-free insert,[4],33.5 µL
same,"recovery at 240 min, 5 μM",in vitro [5],79.2%
"Cc1cc(O)c2c(=O)c3c(O)cc(O)c4c5c(O)cc(O)c6c(=O)c7c(O)cc(C)c8c1c2c(c34)c(c78)c65 [Hypericin, hypericin]",Global placental pathology: Else,placental tissue [6],CCB and N
same,Extravasations into villous stroma (in words),placental tissue [6]; after perfusion,no extravasations into villous stroma
same,Ruptures of villous vessels (in words),placental tissue [6]; after perfusion,no ruptures of villous vessels
same,Hydropic changes in non-perfused,placental tissue [6]; [10],5% and 0%
same,Intervillous spaces without blood in non-perfused,placental tissue [6]; [10],40% and 80%
same,Vacuolated trophoblast in villi: in non-perfused too?,placental tissue [6]; [10],0%
same,Thrombi in vessels of stem villi (in words),placental tissue [6]; perfused and non-perfused,no thrombi detectable
same,Intervillous spaces without blood,placental tissue [6]; perfused area,90% and 95%
same,Emptiness of villous vessels,"placental tissue [6]; perfused area, individual experiments",90% and 80% and 85%
same,Effect on β-hCG and leptin production (in words),"placental tissue [2]; 5 μM, 240 min perfusion, vs antipyrine control perfusions","neither hyperforin, hypericin, nor valerenic acid inhibited their production in a statistically significant manner"
same,Transplacental transfer (in words),"human placental barrier; 240 min perfusion, 5 μM maternal",did not cross the human placental barrier
same,Concentration in the maternal compartment,"human placental barrier; human, 240 min, 5 μM, pH 7.2",approximately 46 % of initial concentration
same,M perfusate (% found),"human placental barrier; maternal perfusate after 240 min, % of amount in maternal sample at beginning",36.7%
same,Compound lost / adhering to the perfusion equipment,[3],3.8% and 3.8% ± 13.1%
same,Stability in PBS compared to PM (in words),"[7]; 360 min, 4°C and 37°C",less stable
same,"Remaining in placental homogenate, Donor 1","[7]; human, tissue homogenate, 6 h",101.0%
same,"Remaining in placental homogenate, Donor 2","[7]; human, tissue homogenate, 6 h",82.7%
same,"Remaining in placental homogenate, Donor 3","[7]; human, tissue homogenate, 6 h",93.7%
same,Passage across cell-free inserts (in words),[8],did not cross the cell-free inserts to a sufficient extent
same,Plasma concentration,[9],2.2 ng/mL and 4.36 nM
same,"recovery at 240 min, 5 μM",in vitro [5],54%
same,Concentration lowering the viability of placental cells,BeWo cells,1 µM
same,Concentration with genotoxic effects,BeWo cells,10 µM
same,Concentration with increased apoptosis / apoptotic effects,BeWo cells,1 µM
